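In this assay, cells in 96-well plates receive the compound at five concentrations for 48 hours. Endpoints are linearly interpolated between the surrounding concentrations. GI50: concentration for 50% inhibition of growth. At the TGI there is no net growth.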
Key:
Experiment in all cases: NCI-60 cell line screen, 48 h
786-0 renal = test system: 786-0 renal
A498 renal = test system: A498 renal
A549 NSCLC = test system: A549 NSCLC
ACHN renal = test system: ACHN renal
BT-549 breast = test system: BT-549 breast
CAKI-1 renal = test system: CAKI-1 renal
CCRF-CEM leukemia = test system: CCRF-CEM leukemia
COLO 205 colon = test system: COLO 205 colon
DU-145 prostate = test system: DU-145 prostate
EKVX NSCLC = test system: EKVX NSCLC
HCC-2998 colon = test system: HCC-2998 colon
HCT-116 colon = test system: HCT-116 colon
HCT-15 colon = test system: HCT-15 colon
HL-60(TB) leukemia = test system: HL-60(TB) leukemia
HOP-62 NSCLC = test system: HOP-62 NSCLC
HOP-92 NSCLC = test system: HOP-92 NSCLC
HS 578T breast = test system: HS 578T breast
HT29 colon = test system: HT29 colon
IGROV1 ovarian = test system: IGROV1 ovarian
K-562 leukemia = test system: K-562 leukemia
KM12 colon = test system: KM12 colon
M14 melanoma = test system: M14 melanoma
MALME-3M melanoma = test system: MALME-3M melanoma
MCF7 breast = test system: MCF7 breast
MDA-MB-231 breast = test system: MDA-MB-231 breast
MDA-MB-435 = test system: MDA-MB-435
MDA-MB-468 breast = test system: MDA-MB-468 breast
MOLT-4 leukemia = test system: MOLT-4 leukemia
NCI-H226 lung = test system: NCI-H226 lung

Cn1cc(-c2cc(N)n3nc(-c4cn(C)c5ccccc45)cc3n2)c2cc(Cl)ccc21
GI50 (786-0 renal): 1740 nM | TGI (786-0 renal): 3.45 µM | GI50 (A498 renal): 14.3 µM | TGI (A498 renal): 32.3 µM | GI50 (A549 NSCLC): 2680 nM | TGI (A549 NSCLC): 10.7 µM | GI50 (ACHN renal): 2050 nM | TGI (ACHN renal): 4.46 µM | GI50 (BT-549 breast): 14.6 µM | TGI (BT-549 breast): 33.4 µM | GI50 (CAKI-1 renal): 2000 nM | TGI (CAKI-1 renal): 5.54 µM | GI50 (CCRF-CEM leukemia): 3.22 µM | TGI (CCRF-CEM leukemia): 15.3 µM | GI50 (COLO 205 colon): 1970 nM | TGI (COLO 205 colon): 3.95 µM | GI50 (DU-145 prostate): 6.37 µM | TGI (DU-145 prostate): > 100 µM | GI50 (EKVX NSCLC): 12.6 µM | TGI (EKVX NSCLC): 37.4 µM | GI50 (HCC-2998 colon): 1780 nM | TGI (HCC-2998 colon): 3.34 µM | GI50 (HCT-116 colon): 1870 nM | TGI (HCT-116 colon): 3.87 µM | GI50 (HCT-15 colon): 1840 nM | TGI (HCT-15 colon): 3.95 µM | GI50 (HL-60(TB) leukemia): 2350 nM | TGI (HL-60(TB) leukemia): 5.81 µM | GI50 (HOP-62 NSCLC): 5.29 µM | TGI (HOP-62 NSCLC): 26.4 µM | GI50 (HOP-92 NSCLC): 2230 nM | TGI (HOP-92 NSCLC): 6.51 µM | GI50 (HS 578T breast): 3.3 µM | TGI (HS 578T breast): 19.4 µM | GI50 (HT29 colon): 1790 nM | TGI (HT29 colon): 3.51 µM | GI50 (IGROV1 ovarian): 2450 nM | TGI (IGROV1 ovarian): 8.26 µM | GI50 (K-562 leukemia): 2970 nM | TGI (K-562 leukemia): 10.6 µM | GI50 (KM12 colon): 2150 nM | TGI (KM12 colon): 4.83 µM | GI50 (M14 melanoma): 1950 nM | TGI (M14 melanoma): 4.71 µM | GI50 (MALME-3M melanoma): 1710 nM | TGI (MALME-3M melanoma): 3.22 µM | GI50 (MCF7 breast): 1770 nM | TGI (MCF7 breast): 4.13 µM | GI50 (MDA-MB-231 breast): 1820 nM | TGI (MDA-MB-231 breast): 3.3 µM | GI50 (MDA-MB-435): 2060 nM | TGI (MDA-MB-435): 4.26 µM | GI50 (MDA-MB-468 breast): 2200 nM | TGI (MDA-MB-468 breast): 5.36 µM | GI50 (MOLT-4 leukemia): 2580 nM | TGI (MOLT-4 leukemia): 9.61 µM | GI50 (NCI-H226 lung): > 100 µM | TGI (NCI-H226 lung): > 100 µM
